Where a name gives a salt, the structure may show the parent alone.
Target: T1, human NaV1.8 (hNaV1.8) ion channel (Homo sapiens, UniProt Q9Y5Y9)
T1 construct: expressed in transfected cells
Experiment: Inhibition of Human NaV1.8 stably expressed in SH-SY-5Y cells (membrane potential dye fluorescence assay)
Format: cell-based
Details: SH-SY-5Y cells stably expressing hNaV1.8; FLIPR membrane potential dye; 10 μM pyrethroid, 250 nM TTX; test range 100 μM-0.05 μM; read-out: hNav1.8 IC50

T1 sequence (Q9Y5Y9 whole entry): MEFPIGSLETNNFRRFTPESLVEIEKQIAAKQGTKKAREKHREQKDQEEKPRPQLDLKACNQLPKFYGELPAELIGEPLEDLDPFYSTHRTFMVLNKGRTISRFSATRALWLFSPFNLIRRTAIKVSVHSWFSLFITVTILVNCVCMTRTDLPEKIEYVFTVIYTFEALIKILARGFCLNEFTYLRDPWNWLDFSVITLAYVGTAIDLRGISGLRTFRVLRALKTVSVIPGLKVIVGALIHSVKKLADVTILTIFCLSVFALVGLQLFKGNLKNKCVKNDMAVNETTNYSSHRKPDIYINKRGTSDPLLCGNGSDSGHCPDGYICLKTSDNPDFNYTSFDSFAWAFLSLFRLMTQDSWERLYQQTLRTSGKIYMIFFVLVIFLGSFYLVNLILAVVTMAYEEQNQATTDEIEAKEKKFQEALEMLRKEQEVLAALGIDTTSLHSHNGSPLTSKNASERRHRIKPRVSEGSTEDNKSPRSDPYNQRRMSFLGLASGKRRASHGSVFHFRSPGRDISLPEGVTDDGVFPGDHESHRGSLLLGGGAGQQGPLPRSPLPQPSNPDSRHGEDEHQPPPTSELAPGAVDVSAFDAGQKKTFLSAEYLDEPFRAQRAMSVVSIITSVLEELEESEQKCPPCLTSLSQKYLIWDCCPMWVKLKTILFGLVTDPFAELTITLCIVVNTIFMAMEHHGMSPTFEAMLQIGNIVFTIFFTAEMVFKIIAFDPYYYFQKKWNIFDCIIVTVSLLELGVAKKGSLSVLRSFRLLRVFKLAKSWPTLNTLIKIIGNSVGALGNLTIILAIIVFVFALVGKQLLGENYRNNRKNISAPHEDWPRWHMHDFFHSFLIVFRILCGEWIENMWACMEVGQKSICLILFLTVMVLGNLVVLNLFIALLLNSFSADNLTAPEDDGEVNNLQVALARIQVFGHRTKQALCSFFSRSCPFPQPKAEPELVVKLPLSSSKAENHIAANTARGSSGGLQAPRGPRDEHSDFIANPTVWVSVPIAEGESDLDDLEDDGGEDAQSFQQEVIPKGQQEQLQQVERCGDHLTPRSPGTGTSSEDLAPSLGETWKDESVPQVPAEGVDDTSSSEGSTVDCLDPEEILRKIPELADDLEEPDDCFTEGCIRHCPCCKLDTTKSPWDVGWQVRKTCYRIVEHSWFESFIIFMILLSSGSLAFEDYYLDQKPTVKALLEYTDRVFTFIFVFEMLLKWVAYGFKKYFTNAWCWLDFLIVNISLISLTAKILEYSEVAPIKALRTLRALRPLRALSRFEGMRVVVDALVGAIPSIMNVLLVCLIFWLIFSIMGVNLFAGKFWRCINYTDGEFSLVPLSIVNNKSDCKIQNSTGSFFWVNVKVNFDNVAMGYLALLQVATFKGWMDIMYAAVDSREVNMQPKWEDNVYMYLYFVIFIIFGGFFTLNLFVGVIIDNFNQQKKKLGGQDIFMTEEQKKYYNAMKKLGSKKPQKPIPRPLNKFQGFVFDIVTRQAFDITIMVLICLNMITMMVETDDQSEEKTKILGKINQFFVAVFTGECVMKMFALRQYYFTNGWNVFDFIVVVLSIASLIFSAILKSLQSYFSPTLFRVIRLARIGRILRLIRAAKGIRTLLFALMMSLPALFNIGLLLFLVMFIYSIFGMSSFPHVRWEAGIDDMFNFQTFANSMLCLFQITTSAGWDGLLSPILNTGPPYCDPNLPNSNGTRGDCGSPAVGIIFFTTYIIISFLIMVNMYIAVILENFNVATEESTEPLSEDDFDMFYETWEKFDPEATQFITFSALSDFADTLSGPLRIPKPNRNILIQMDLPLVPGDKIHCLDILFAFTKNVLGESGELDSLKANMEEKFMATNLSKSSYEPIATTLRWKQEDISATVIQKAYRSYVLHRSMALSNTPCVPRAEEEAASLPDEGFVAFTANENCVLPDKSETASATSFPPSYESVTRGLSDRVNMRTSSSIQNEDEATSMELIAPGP

| SMILES | IC50 |
| --- | --- |
| Cc1cc(F)ccc1C(C)NC1CN(C(=O)Nc2ccc(Oc3ccc(F)cc3)cc2)C1 (stereo not drawn) [Example 119, 3-[1-(4-Fluoro-2-methyl-phenyl)-ethylamino]-azetidine-1-carboxylic acid [4-(4-fluoro-phenoxy)-phenyl]-amide] | 460 nM |
| CC(NC1CN(C(=O)Nc2ccc(Oc3ccccc3)cc2)C1)c1ccc(N2CCCCC2)cc1 (stereo not drawn) [Example 120, 3-[1-(4-Piperidin-1-yl-phenyl)-ethylamino]-azetidine-1-carboxylic acid (4-phenoxy-phenyl)-amide] | 590 nM |
| Cc1ccc(C(C)NC2CN(C(=O)Nc3ccc(Oc4ccccc4)cc3)C2)cc1 (stereo not drawn) [Example 121, 3-(1-p-Tolyl-ethylamino)-azetidine-1-carboxylic acid (4-phenoxy-phenyl)-amide] | 400 nM |
| Cc1ccc(C(C)NC2CN(C(=O)Nc3ccc(C(F)(F)F)cc3)C2)cc1 (stereo not drawn) [Example 122, 3-(1-p-Tolyl-ethylamino)-azetidine-1-carboxylic acid (4-trifluoromethyl-phenyl)-amide] | 1700 nM |
| O=C(Nc1ccc(Oc2ccccc2)cc1)N1CC(NC2COc3ccccc32)C1 (stereo not drawn) [Example 123, 3-(2,3-Dihydro-benzofuran-3-ylamino)-azetidine-1-carboxylic acid (4-phenoxy-phenyl)-amide] | 1700 nM |
| CC(NC1CN(C(=O)Nc2ccc(C(F)(F)F)cc2)C1)c1ccccc1Cl (stereo not drawn) [Example 124, 3-[1-(2-Chloro-phenyl)-ethylamino]-azetidine-1-carboxylic acid (4-trifluoromethyl-phenyl)-amide] | 2480 nM |
| CC(NC1CN(C(=O)Nc2ccc(C(F)(F)F)cc2)C1)c1ccc(C#N)cc1 (stereo not drawn) [Example 126, 3-[1-(4-Cyano-phenyl)-ethylamino]-azetidine-1-carboxylic acid (4-trifluoromethyl-phenyl)-amide] | 23700 nM |
| CC(NC1CN(C(=O)Nc2ccc(Oc3ccc(F)cc3)cc2)C1)c1ccc(C#N)cc1 (stereo not drawn) [Example 127, 3-[1-(4-Cyano-phenyl)-ethylamino]-azetidine-1-carboxylic acid [4-(4-fluoro-phenoxy)-phenyl]-amide] | 2110 nM |
| O=C(Nc1ccc(Oc2ccccc2)cc1)N1CC(NCc2c(F)cccc2F)C1 [Example 128, 3-(2,6-Difluoro-benzylamino)-azetidine-1-carboxylic acid (4-phenoxy-phenyl)-amide] | 830 nM |
| O=C(Nc1ccc(Oc2ccc(F)cc2)cc1)N1CC(NCc2c(F)cccc2F)C1 [Example 129, 3-(2,6-Difluoro-benzylamino)-azetidine-1-carboxylic acid [4-(4-fluoro-phenoxy)-phenyl]-amide] | 1490 nM |
| CC(NC1CN(C(=O)Nc2ccc(Oc3ccccc3)cc2)C1)c1c(F)cccc1F (stereo not drawn) [Example 130, 3-[1-(2,6-Difluoro-phenyl)-ethylamino]-azetidine-1-carboxylic acid (4-phenoxy-phenyl)-amide] | 750 nM |
| CC(NC1CN(C(=O)Nc2ccc(Oc3ccc(F)cc3)cc2)C1)c1c(F)cccc1F (stereo not drawn) [Example 131, 3-[1-(2,6-Difluoro-phenyl)-ethylamino]-azetidine-1-carboxylic acid [4-(4-fluoro-phenoxy)-phenyl]-amide] | 530 nM |
| O=C(Nc1ccc(Oc2ccccc2F)cc1)N1CC(NC2CCc3cc(Cl)ccc32)C1 (stereo not drawn) [Example 133, 3-(5-Chloro-indan-1-ylamino)-azetidine-1-carboxylic acid [4-(2-fluoro-phenoxy)-phenyl]-amide] | 1550 nM |
| COc1ccc2c(c1)CCC2NC1CN(C(=O)Nc2ccc(Oc3cccc(F)c3)cc2)C1 (stereo not drawn) [Example 134, 3-(5-Methoxy-indan-1-ylamino)-azetidine-1-carboxylic acid [4-(3-fluoro-phenoxy)-pheny]-amide] | 170 nM |
| O=C(Nc1ccc(Oc2ccc(F)cc2)nc1)N1CC(NC2CCc3cc(F)ccc32)C1 (stereo not drawn) [Example 135, 3-(5-Fluoro-indan-1-ylamino)-azetidine-1-carboxylic acid [6-(4-fluoro-phenoxy)-pyridin-3-yl]-amide methanesulfonate salt] | 2170 nM |

Source: patent US20100105651A1, “ANTAGONISTS OF SNS SODIUM CHANNELS” (priority 2005, published 2010)
